Where only a bound is given, the exact number is not on record here.

One assay concerns the target T1, BRG-1 (Homo sapiens, UniProt P51532).
T1 construct: made in house; host or cells: High Five insect cells
As to the kind of experiment: ATPase catalytic activity of BRG-1, ADP-Glo in vitro biochemical assay. The note with it: ATPase catalytic activity, 30 nM BRG-1, 400 μM ATP, read-out: BRG1 IP50 (μM)*.

Another assay has as its target T2, BRM (Homo sapiens, UniProt P51531).
T2 construct: made in house; host or cells: High Five insect cells
As to the kind of experiment: ATPase catalytic activity of BRM, ADP-Glo in vitro biochemical assay. The note with it: ATPase catalytic activity, 30 nM BRM, 400 μM ATP, read-out: BRM IP50 (μM)*.

T1 sequence (P51532 whole entry): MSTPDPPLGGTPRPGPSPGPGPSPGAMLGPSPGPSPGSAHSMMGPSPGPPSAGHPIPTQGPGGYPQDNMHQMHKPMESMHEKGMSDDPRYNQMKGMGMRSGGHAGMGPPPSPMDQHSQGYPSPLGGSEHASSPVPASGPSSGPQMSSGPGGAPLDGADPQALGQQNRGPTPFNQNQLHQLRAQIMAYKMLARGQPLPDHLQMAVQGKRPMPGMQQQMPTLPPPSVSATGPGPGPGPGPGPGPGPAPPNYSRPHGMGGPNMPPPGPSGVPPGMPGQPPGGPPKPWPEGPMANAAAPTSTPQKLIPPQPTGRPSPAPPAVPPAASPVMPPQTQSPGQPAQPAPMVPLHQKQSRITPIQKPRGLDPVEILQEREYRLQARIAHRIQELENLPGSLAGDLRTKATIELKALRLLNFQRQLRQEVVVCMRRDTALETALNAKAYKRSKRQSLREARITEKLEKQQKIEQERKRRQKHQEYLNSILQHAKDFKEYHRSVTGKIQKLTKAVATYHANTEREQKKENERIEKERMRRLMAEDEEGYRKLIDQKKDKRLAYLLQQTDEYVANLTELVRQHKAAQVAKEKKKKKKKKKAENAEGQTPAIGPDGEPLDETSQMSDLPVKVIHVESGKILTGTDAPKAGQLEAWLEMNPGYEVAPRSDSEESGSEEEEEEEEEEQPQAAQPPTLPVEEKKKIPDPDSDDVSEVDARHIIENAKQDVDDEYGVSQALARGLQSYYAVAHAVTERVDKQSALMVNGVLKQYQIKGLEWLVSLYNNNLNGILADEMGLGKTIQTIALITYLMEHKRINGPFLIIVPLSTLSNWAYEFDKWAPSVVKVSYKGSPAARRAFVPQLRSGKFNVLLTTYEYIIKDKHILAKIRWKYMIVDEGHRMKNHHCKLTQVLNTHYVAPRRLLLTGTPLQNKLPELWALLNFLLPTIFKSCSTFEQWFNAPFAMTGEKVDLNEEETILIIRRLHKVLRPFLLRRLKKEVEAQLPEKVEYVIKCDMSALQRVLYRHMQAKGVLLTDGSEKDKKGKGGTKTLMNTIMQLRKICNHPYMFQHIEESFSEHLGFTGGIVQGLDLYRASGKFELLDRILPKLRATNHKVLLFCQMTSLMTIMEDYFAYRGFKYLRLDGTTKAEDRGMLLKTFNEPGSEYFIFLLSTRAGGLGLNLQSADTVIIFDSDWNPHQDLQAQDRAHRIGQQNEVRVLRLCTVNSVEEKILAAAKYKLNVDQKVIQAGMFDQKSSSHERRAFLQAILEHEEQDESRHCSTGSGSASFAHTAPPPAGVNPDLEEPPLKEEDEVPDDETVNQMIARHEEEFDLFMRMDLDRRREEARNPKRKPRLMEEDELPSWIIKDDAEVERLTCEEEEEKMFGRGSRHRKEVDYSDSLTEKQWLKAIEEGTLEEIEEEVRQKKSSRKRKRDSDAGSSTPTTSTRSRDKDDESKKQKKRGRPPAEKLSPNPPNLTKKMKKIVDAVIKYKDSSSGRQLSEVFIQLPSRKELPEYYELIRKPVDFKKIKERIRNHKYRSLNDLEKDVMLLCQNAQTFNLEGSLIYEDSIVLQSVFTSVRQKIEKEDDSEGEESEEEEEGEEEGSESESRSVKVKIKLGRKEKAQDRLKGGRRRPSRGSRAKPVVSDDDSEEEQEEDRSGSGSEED
T2 sequence (P51531 whole entry): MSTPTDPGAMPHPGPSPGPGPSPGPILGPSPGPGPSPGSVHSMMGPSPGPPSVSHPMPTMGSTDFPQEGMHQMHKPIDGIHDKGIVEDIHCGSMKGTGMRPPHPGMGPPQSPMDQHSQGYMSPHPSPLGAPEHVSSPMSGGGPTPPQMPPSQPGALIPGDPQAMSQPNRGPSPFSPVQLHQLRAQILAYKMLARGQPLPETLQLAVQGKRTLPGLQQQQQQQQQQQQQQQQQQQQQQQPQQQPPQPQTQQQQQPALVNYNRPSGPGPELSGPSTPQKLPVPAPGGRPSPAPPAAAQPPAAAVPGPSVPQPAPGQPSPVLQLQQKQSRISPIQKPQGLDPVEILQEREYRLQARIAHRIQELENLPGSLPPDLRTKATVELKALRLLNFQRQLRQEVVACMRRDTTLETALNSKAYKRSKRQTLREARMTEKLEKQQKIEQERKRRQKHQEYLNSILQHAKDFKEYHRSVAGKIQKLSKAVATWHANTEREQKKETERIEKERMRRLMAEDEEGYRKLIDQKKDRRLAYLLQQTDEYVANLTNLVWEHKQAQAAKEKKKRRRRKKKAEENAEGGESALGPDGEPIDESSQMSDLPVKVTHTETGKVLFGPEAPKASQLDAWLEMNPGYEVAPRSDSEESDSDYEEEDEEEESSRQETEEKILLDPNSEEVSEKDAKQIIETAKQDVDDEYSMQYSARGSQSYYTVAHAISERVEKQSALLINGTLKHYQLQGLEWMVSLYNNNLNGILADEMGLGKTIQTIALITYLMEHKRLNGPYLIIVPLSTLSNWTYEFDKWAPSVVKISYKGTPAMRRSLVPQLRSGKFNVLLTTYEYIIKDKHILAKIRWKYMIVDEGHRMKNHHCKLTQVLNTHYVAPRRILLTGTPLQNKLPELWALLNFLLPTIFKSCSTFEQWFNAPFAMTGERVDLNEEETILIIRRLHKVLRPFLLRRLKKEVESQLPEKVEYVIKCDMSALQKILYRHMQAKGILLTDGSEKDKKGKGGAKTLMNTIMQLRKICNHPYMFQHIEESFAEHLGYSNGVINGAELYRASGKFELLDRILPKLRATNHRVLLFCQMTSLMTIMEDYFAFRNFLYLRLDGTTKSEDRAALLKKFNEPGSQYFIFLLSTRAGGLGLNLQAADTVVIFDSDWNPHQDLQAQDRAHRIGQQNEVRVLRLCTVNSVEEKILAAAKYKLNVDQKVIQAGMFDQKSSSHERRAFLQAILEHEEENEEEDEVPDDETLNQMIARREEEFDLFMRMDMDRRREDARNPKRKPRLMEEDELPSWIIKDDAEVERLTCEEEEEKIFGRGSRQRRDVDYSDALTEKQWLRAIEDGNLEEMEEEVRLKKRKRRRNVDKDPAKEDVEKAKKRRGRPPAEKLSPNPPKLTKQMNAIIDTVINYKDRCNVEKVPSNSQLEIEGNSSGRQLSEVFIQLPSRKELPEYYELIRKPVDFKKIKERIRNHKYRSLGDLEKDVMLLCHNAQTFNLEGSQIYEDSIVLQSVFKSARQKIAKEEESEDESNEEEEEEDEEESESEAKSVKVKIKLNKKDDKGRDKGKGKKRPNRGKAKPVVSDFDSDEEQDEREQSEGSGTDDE

On to `Cn1cnc(-c2cccc(-c3csc(NC(=O)CNC(=O)c4ccn(S(C)(=O)=O)c4)n3)c2)c1` [Compound 18, N-(2-((4-(3-(1-methyl-1H-imidazol-4-yl)phenyl)thiazol-2-yl)amino)-2-oxoethyl)-1-(methylsulfonyl)-1H-pyrrole-3-carboxamide], for which the IC50 on BRG-1 and on BRM was more than 0.01 µM throughout.

Consider `CN1CCN(c2cc(-c3cccc(-c4csc(NC(=O)CNC(=O)c5ccn(S(C)(=O)=O)c5)n4)c3)ccn2)CC1` [Compound 19, N-(2-((4-(3-(2-(4-methylpiperazin-1-yl)pyridin-4-yl)phenyl)thiazol-2-yl)amino)-2-oxoethyl)-1-(methylsulfonyl)-1H-pyrrole-3-carboxamide], for which the IC50 at BRG-1 and on BRM was more than 0.01 µM in each case.

In the case of `CN(C)CCNc1cc(-c2cccc(-c3csc(NC(=O)CNC(=O)c4ccn(S(C)(=O)=O)c4)n3)c2)ccn1` [Compound 20, N-(2-((4-(3-(2-((2-(dimethylamino)ethyl)amino)pyridin-4-yl)phenyl)thiazol-2-yl)amino)-2-oxoethyl)-1-(methylsulfonyl)-1H-pyrrole-3-carboxamide], the IC50 at BRG-1 and on BRM was more than 0.01 µM in each case.

Consider `CN(C)CCN(C)c1cc(-c2cccc(-c3csc(NC(=O)CNC(=O)c4ccn(S(C)(=O)=O)c4)n3)c2)ccn1` [Compound 21, N-(2-((4-(3-(2-((2-(dimethylamino)ethyl)(methyl)amino)pyridin-4-yl)phenyl)thiazol-2-yl)amino)-2-oxoethyl)-1-(methylsulfonyl)-1H-pyrrole-3-carboxamide], for which the IC50 on BRG-1 and at BRM was more than 0.01 µM throughout.

Take `Cc1cc(-c2cccc(-c3csc(NC(=O)CNC(=O)c4ccn(C(C)(C)C)c4)n3)c2)ncn1` [Compound 22, 1-(tert-butyl)-N-(2-((4-(3-(6-methylpyrimidin-4-yl)phenyl)thiazol-2-yl)amino)-2-oxoethyl)-1H-pyrrole-3-carboxamide]: the IC50 at BRG-1 and at BRM was less than 0.01 µM each time.

For the compound `Cc1nccc(-c2cccc(-c3csc(NC(=O)CNC(=O)c4ccn(C(C)(C)C)c4)n3)c2)n1` [Compound 23, 1-(tert-butyl)-N-(2-((4-(3-(2-methylpyrimidin-4-yl)phenyl)thiazol-2-yl)amino)-2-oxoethyl)-1H-pyrrole-3-carboxamide], the IC50 at BRG-1 and on BRM was less than 0.01 µM throughout.

With `CC(C)(C)n1ccc(C(=O)NCC(=O)Nc2nc(-c3cccc(-c4ccnc(CN)c4)c3)cs2)c1` [Compound 24, N-(2-((4-(3-(2-(aminomethyl)pyridin-4-yl)phenyl)thiazol-2-yl)amino)-2-oxoethyl)-1-(tert-butyl)-1H-pyrrole-3-carboxamide], the IC50 at BRG-1 and at BRM was more than 0.01 µM in each case.

As to `COC(C)(C)Cn1ccc(-c2cccc(-c3csc(NC(=O)CNC(=O)c4ccn(C(C)(C)C)c4)n3)c2)n1` [Compound 25, 1-(tert-butyl)-N-(2-((4-(3-(1-(2-methoxy-2-methylpropyl)-1H-pyrazol-3-yl)phenyl)thiazol-2-yl)amino)-2-oxoethyl)-1H-pyrrole-3-carboxamide], the IC50 is more than 0.1 µM on BRG-1 and more than 0.01 µM on BRM.

Turning to `Cn1nc(-c2cccc(-c3csc(NC(=O)CNC(=O)c4ccn(C(C)(C)C)c4)n3)c2)cc1CO` [Compound 26, 1-(tert-butyl)-N-(2-((4-(3-(5-(hydroxymethyl)-1-methyl-1H-pyrazol-3-yl)phenyl)thiazol-2-yl)amino)-2-oxoethyl)-1H-pyrrole-3-carboxamide], the IC50 on BRG-1 and on BRM was more than 0.01 µM in each case.

For `COCC(C)(C)n1ccc(C(=O)NCC(=O)Nc2nc(-c3cccc(-c4ccn(C)n4)c3)cs2)c1` [Compound 27, 1-(1-methoxy-2-methylpropan-2-yl)-N-(2-((4-(3-(1-methyl-1H-pyrazol-3-yl)phenyl)thiazol-2-yl)amino)-2-oxoethyl)-1H-pyrrole-3-carboxamide], the IC50 at BRG-1 was more than 1 µM; on BRM, more than 0.1 µM.

`Cn1ccc(-c2cccc(-c3csc(NC(=O)CNC(=O)c4ccn(CC(C)(C)O)c4)n3)c2)n1` [Compound 28, 1-(2-hydroxy-2-methylpropyl)-N-(2-((4-(3-(1-methyl-1H-pyrazol-3-yl)phenyl)thiazol-2-yl)amino)-2-oxoethyl)-1H-pyrrole-3-carboxamide]: the IC50 at BRG-1 and at BRM was more than 1 µM in each case.

As to `COC(C)(C)Cn1ccc(C(=O)NCC(=O)Nc2nc(-c3cccc(-c4ccn(C)n4)c3)cs2)c1` [Compound 29, 1-(2-methoxy-2-methylpropyl)-N-(2-((4-(3-(1-methyl-1H-pyrazol-3-yl)phenyl)thiazol-2-yl)amino)-2-oxoethyl)-1H-pyrrole-3-carboxamide], the IC50 at BRG-1 and on BRM was more than 1 µM in each case.

For the compound `Cn1ccc(-c2cccc(-c3csc(NC(=O)CNC(=O)c4ccn(C(C)(C)CO)c4)n3)c2)n1` [Compound 30, 1-(1-hydroxy-2-methylpropan-2-yl)-N-(2-((4-(3-(1-methyl-1H-pyrazol-3-yl)phenyl)thiazol-2-yl)amino)-2-oxoethyl)-1H-pyrrole-3-carboxamide], the IC50 at BRG-1 and on BRM was more than 0.01 µM in each case.

As for `Cn1cncc1C(=O)NCC(=O)Nc1nc(-c2cccc(C#N)c2)cs1` [Compound 31, N-(2-((4-(3-cyanophenyl)thiazol-2-yl)amino)-2-oxoethyl)-1-methyl-1H-imidazole-5-carboxamide], the IC50 on BRG-1 and on BRM was more than 1 µM throughout.

As for `Cn1nccc1C(=O)NCC(=O)Nc1nc(-c2cccc(C#N)c2)cs1` [Compound 32, N-(2-((4-(3-cyanophenyl)thiazol-2-yl)amino)-2-oxoethyl)-1-methyl-1H-pyrazole-5-carboxamide], the IC50 on BRG-1 and on BRM was more than 1 µM in each case.

With `CS(=O)(=O)n1ccc(C(=O)NCC(=O)Nc2nc(-c3cccc(C#N)c3)cs2)c1` [Compound 33, N-(2-((4-(3-cyanophenyl)thiazol-2-yl)amino)-2-oxoethyl)-1-(methylsulfonyl)-1H-pyrrole-3-carboxamide], the IC50 on BRG-1 and at BRM was more than 0.01 µM each time.

Take `CC(C)(C#N)n1ccc(C(=O)NCC(=O)Nc2nc(-c3cccc(C#N)c3)cs2)c1` [Compound 34, N-(2-((4-(3-cyanophenyl)thiazol-2-yl)amino)-2-oxoethyl)-1-(2-cyanopropan-2-yl)-1H-pyrrole-3-carboxamide]: the IC50 was more than 0.1 µM on BRG-1 and more than 0.01 µM at BRM.

For the compound `CC(C)(C)n1ccc(C(=O)NCC(=O)Nc2nc(-c3cccc(C#N)c3)cs2)c1` [Compound 35, 1-(tert-butyl)-N-(2-((4-(3-cyanophenyl)thiazol-2-yl)amino)-2-oxoethyl)-1H-pyrrole-3-carboxamide], the IC50 at BRG-1 and at BRM was more than 0.1 µM in each case.

`CC(C)(C)n1ccc(C(=O)NCC(=O)Nc2nc(-c3cccc(C#N)c3)cs2)n1` [Compound 36, 1-(tert-butyl)-N-(2-((4-(3-cyanophenyl)thiazol-2-yl)amino)-2-oxoethyl)-1H-pyrazole-3-carboxamide]: the IC50 on BRG-1 and at BRM was more than 0.1 µM in each case.

In the case of `CC(C)(C)n1cc(C(=O)NCC(=O)Nc2nc(-c3cccc(C#N)c3)cs2)cn1` [Compound 37, 1-(tert-butyl)-N-(2-((4-(3-cyanophenyl)thiazol-2-yl)amino)-2-oxoethyl)-1H-pyrazole-4-carboxamide], the IC50 at BRG-1 and at BRM was more than 1 µM each time.

Regarding `NCCn1ccc(C(=O)NCC(=O)Nc2nc(-c3cccc(-c4ccncc4)c3)cs2)c1` [Compound 38, 1-(2-aminoethyl)-N-(2-oxo-2-((4-(3-(pyridin-4-yl)phenyl)thiazol-2-yl)amino)ethyl)-1H-pyrrole-3-carboxamide], the IC50 at BRG-1 and at BRM was more than 0.1 µM each time.

Regarding `O=C(CNC(=O)c1ccn(C2CCNCC2)c1)Nc1nc(-c2cccc(-c3ccncc3)c2)cs1` [Compound 39, N-(2-oxo-2-((4-(3-(pyridin-4-yl)phenyl)thiazol-2-yl)amino)ethyl)-1-(piperidin-4-yl)-1H-pyrrole-3-carboxamide], the IC50 at BRG-1 and on BRM was more than 1 µM in each case.

On to `NCCS(=O)(=O)n1ccc(C(=O)NCC(=O)Nc2nc(-c3cccc(-c4ccncc4)c3)cs2)c1` [Compound 40, 1-((2-aminoethyl)sulfonyl)-N-(2-oxo-2-((4-(3-(pyridin-4-yl)phenyl)thiazol-2-yl)amino)ethyl)-1H-pyrrole-3-carboxamide], for which the IC50 at BRG-1 and on BRM was more than 0.01 µM in each case.

As for `CC(C)(C)n1ccc(C(=O)NCC(=O)Nc2nc(-c3cccc(-c4ccncc4)c3)cs2)c1` [Compound 41, 1-(tert-butyl)-N-(2-oxo-2-((4-(3-(pyridin-4-yl)phenyl)thiazol-2-yl)amino)ethyl)-1H-pyrrole-3-carboxamide], the IC50 on BRG-1 is more than 0.01 µM; at BRM it was less than 0.01 µM.

In the case of `CC(C)(CN)n1ccc(C(=O)NCC(=O)Nc2nc(-c3cccc(-c4ccncc4)c3)cs2)c1` [Compound 42, 1-(1-amino-2-methylpropan-2-yl)-N-(2-oxo-2-((4-(3-(pyridin-4-yl)phenyl)thiazol-2-yl)amino)ethyl)-1H-pyrrole-3-carboxamide], the IC50 on BRG-1 is more than 0.1 µM; on BRM, more than 0.01 µM.

Consider `CC(C)S(=O)(=O)n1ccc(C(=O)NCC(=O)Nc2nc(-c3cccc(-c4ccncc4)c3)cs2)c1` [Compound 43, 1-isopropylsulfonyl-N-[2-oxo-2-[[4-[3-(4-pyridyl)phenyl]thiazol-2-yl]amino]ethyl]pyrrole-3-carboxamide], for which the IC50 on BRG-1 and at BRM was more than 0.01 µM each time.

With `CS(=O)(=O)n1cc(C(=O)NCC(=O)Nc2nc(-c3cccc(-c4ccncc4)c3)cs2)cn1` [Compound 44, 1-(methylsulfonyl)-N-(2-oxo-2-((4-(3-(pyridin-4-yl)phenyl)thiazol-2-yl)amino)ethyl)-1H-pyrazole-4-carboxamide], the IC50 at BRG-1 was more than 0.1 µM; at BRM, more than 0.01 µM.

The values above are taken from US20230079819A1, “COMPOUNDS AND USES THEREOF” (Foghorn Therapeutics Inc., priority 2019, published 2023).
